Data reported in patent US10517889B2, “Modulators of SMAD7 expression” (Ionis Pharmaceuticals, Inc., priority 2017, dated 2019).
Strand notation (5' to 3'): a small letter for the sugar, then the base; units joined by * are phosphorothioate-linked, units joined directly phosphodiester-linked; [ ] holds rarer units or linkages, { } end groups; capitals alone tell only the bases. k = constrained ethyl (cEt); [5mC] = 5-methylcytosine; d = 2'-deoxy (DNA)

Tested on: human SMAD7 mRNA
Assay: Antisense inhibition of human SMAD7 mRNA expression in Hep3B cells by 3-10-3 cEt gapmers, 10,000 nM, electroporation (Example 2)
Type: cell-based
Details: Hep3B cells, 10,000 nM antisense oligonucleotide, electroporation, approximately 24 hours, RT-PCR primer probe set RTS5062, relative to untreated control cells
Summary of the method: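 Hep3B cells (20,000/well) were electroporated with 10,000 nM 3-10-3 cEt gapmer (16-mer, phosphorothioate, 5-methylcytosines) and harvested after about 24 h. SMAD7 mRNA quantified by RT-qPCR with primer probe set RTS5062, normalized to total RNA by RiboGreen; percent inhibition relative to untreated cells.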

Substance | % Inhibition
799871 (kT*kT*kG*dG*dA*d[5mC]*dA*d[5mC]*dA*d[5mC]*dT*d[5mC]*dA*k[5mC]*kT*kG; antisense) [compound 799871] | 0%
799872 (kA*kA*kG*dT*dT*dA*dA*dT*d[5mC]*dA*dT*dT*dA*k[5mC]*kT*kT; antisense) [compound 799872] | 0%
799873 (kA*kA*kA*dA*dG*dT*dT*dA*dA*dT*d[5mC]*dA*dT*kT*kA*k[5mC]; antisense) [compound 799873] | 0%
799874 (k[5mC]*kA*kG*dA*d[5mC]*dT*dG*dG*dA*dA*dA*dA*dG*kT*kT*kA; antisense) [compound 799874] | 0%
799875 (kG*kT*kG*d[5mC]*dA*dG*dA*d[5mC]*dT*dG*dG*dA*dA*kA*kA*kG; antisense) [compound 799875] | 41%
799876 (kG*k[5mC]*k[5mC]*dA*dG*dG*dG*d[5mC]*d[5mC]*dG*d[5mC]*dA*d[5mC]*kT*kG*kT; antisense) [compound 799876] | 55%
799877 (kA*k[5mC]*kT*dT*dT*dA*d[5mC]*dA*dA*d[5mC]*d[5mC]*d[5mC]*dA*kA*kT*kA; antisense) [compound 799877] | 52%
799879 (kT*kG*kG*dA*dA*dA*dA*dG*d[5mC]*dT*d[5mC]*d[5mC]*dT*kT*k[5mC]*kT; antisense) [compound 799879] | 3%
799880 (kT*k[5mC]*k[5mC]*dG*dA*dT*dG*dG*dA*dA*dA*dA*dG*k[5mC]*kT*k[5mC]; antisense) [compound 799880] | 39%
799891 (antisense kA*kT*k[5mC]*dA*dT*dT*dA*dA*dG*d[5mC]*d[5mC]*dA*dA*kT*kT*kT) [compound 799891] | 0%
799892 (antisense kG*k[5mC]*kA*dT*d[5mC]*dA*dT*dT*dA*dA*dG*d[5mC]*d[5mC]*kA*kA*kT) [compound 799892] | 54%
799893 (antisense kA*kT*kA*d[5mC]*dA*dA*dA*d[5mC]*d[5mC]*dA*d[5mC]*dT*dG*k[5mC]*kA*kT) [compound 799893] | 0%
799894 (antisense kT*k[5mC]*k[5mC]*d[5mC]*dA*dA*d[5mC]*dT*dG*dG*dG*d[5mC]*dA*kG*k[5mC]*kT) [compound 799894] | 2%
799895 (antisense k[5mC]*kT*kG*dA*dG*dA*dG*dT*dG*dT*dA*dG*dG*kA*kG*kA) [compound 799895] | 50%
799896 (antisense k[5mC]*kT*kT*dA*d[5mC]*d[5mC]*dT*d[5mC]*dA*d[5mC]*d[5mC]*d[5mC]*dA*k[5mC]*k[5mC]*kT) [compound 799896] | 36%
799897 (antisense kT*k[5mC]*kT*d[5mC]*dT*dT*dA*d[5mC]*d[5mC]*dT*d[5mC]*dA*d[5mC]*k[5mC]*k[5mC]*kA) [compound 799897] | 27%
799898 (antisense kG*kT*k[5mC]*dT*d[5mC]*dT*dT*dA*d[5mC]*d[5mC]*dT*d[5mC]*dA*k[5mC]*k[5mC]*k[5mC]) [compound 799898] | 37%
799899 (antisense kA*kA*kG*dT*d[5mC]*dT*d[5mC]*dT*dT*dA*d[5mC]*d[5mC]*dT*k[5mC]*kA*k[5mC]) [compound 799899] | 33%
799900 (antisense k[5mC]*kA*kA*dG*dT*d[5mC]*dT*d[5mC]*dT*dT*dA*d[5mC]*d[5mC]*kT*k[5mC]*kA) [compound 799900] | 51%
799910 (antisense k[5mC]*k[5mC]*kA*dA*d[5mC]*dT*d[5mC]*d[5mC]*dA*dT*dT*d[5mC]*dA*kT*kA*kA) [compound 799910] | 36%
799911 (antisense kA*kG*k[5mC]*d[5mC]*dA*dA*d[5mC]*dT*d[5mC]*d[5mC]*dA*dT*dT*k[5mC]*kA*kT) [compound 799911] | 0%
799912 (antisense k[5mC]*kT*k[5mC]*dA*dG*dA*dG*dG*dA*dA*dG*dG*dG*kT*kG*kG) [compound 799912] | 22%
799913 (antisense kG*kG*k[5mC]*d[5mC]*dT*d[5mC]*dA*dG*dA*dG*dG*dA*dA*kG*kG*kG) [compound 799913] | 18%

Same assay, conditions: Hep3B cells, electroporation with 10,000 nM antisense oligonucleotide, approximately 24 hours, SMAD7 mRNA by RT-PCR (RTS5062), relative to untreated control cells

Substance | % Inhibition
799863 (kG*kG*k[5mC]*dT*d[5mC]*d[5mC]*d[5mC]*d[5mC]*d[5mC]*dA*d[5mC]*d[5mC]*dG*k[5mC]*kA*kT; antisense) [compound 799863] | 16%
799864 (k[5mC]*kT*k[5mC]*dA*dA*dG*d[5mC]*d[5mC]*d[5mC]*dA*d[5mC]*d[5mC]*d[5mC]*k[5mC]*kG*kG; antisense) [compound 799864] | 42%
799865 (kG*kG*kG*dA*d[5mC]*dA*dG*dA*d[5mC]*dT*dG*dT*d[5mC]*k[5mC]*k[5mC]*k[5mC]; antisense) [compound 799865] | 0%
799866 (k[5mC]*kA*k[5mC]*d[5mC]*dG*d[5mC]*dG*d[5mC]*dA*dG*dG*dG*dA*k[5mC]*kA*kG; antisense) [compound 799866] | 0%
799867 (k[5mC]*kT*k[5mC]*d[5mC]*dA*dA*dT*d[5mC]*dT*dG*dG*d[5mC]*dT*kG*kG*kT; antisense) [compound 799867] | 24%
799868 (k[5mC]*kA*kT*dA*dA*dA*d[5mC]*dA*dT*dG*dG*dG*d[5mC]*kT*k[5mC]*k[5mC]; antisense) [compound 799868] | 34%
799869 (k[5mC]*k[5mC]*kA*dT*dA*dA*dA*d[5mC]*dA*dT*dG*dG*dG*k[5mC]*kT*k[5mC]; antisense) [compound 799869] | 16%
799870 (kA*k[5mC]*k[5mC]*d[5mC]*dA*dG*dA*dA*dG*d[5mC]*dT*dG*d[5mC]*kT*kG*kT; antisense) [compound 799870] | 18%
799881 (kA*kA*kT*dA*dA*dA*dT*dT*d[5mC]*d[5mC]*dA*dA*dT*kG*k[5mC]*kA; antisense) [compound 799881] | 0%
799882 (kT*kT*kT*dG*dA*dA*d[5mC]*dA*dT*dT*dT*dA*d[5mC]*kT*kG*k[5mC]; antisense) [compound 799882] | 41%
799883 (kT*k[5mC]*kT*dA*dG*dA*dG*dG*dG*dT*dA*dG*dG*kA*kA*kA; antisense) [compound 799883] | 9%
799884 (k[5mC]*kT*k[5mC]*d[5mC]*dA*dG*dT*dT*dT*d[5mC]*dT*dA*dG*kA*kG*kG; antisense) [compound 799884] | 0%
799885 (k[5mC]*k[5mC]*k[5mC]*d[5mC]*dA*d[5mC]*dA*dG*dA*dT*d[5mC]*d[5mC]*dA*kA*k[5mC]*kT; antisense) [compound 799885] | 0%
799886 (antisense kA*k[5mC]*k[5mC]*dA*dA*dG*d[5mC]*dT*dA*d[5mC]*dT*dT*dT*kT*kG*k[5mC]) [compound 799886] | 25%
799887 (antisense k[5mC]*kA*kG*dG*dA*d[5mC]*dA*dG*dT*dT*dT*dT*dT*k[5mC]*k[5mC]*k[5mC]) [compound 799887] | 29%
799888 (antisense kG*kG*kA*d[5mC]*dA*dA*dA*dA*d[5mC]*d[5mC]*d[5mC]*d[5mC]*dT*kA*kG*kA) [compound 799888] | 22%
799889 (antisense kA*kA*kA*dA*dG*dG*dA*d[5mC]*dA*dA*dA*dA*d[5mC]*k[5mC]*k[5mC]*k[5mC]) [compound 799889] | 45%
799890 (antisense k[5mC]*kA*kT*dT*dA*dA*dG*d[5mC]*d[5mC]*dA*dA*dT*dT*kT*kT*k[5mC]) [compound 799890] | 41%
799901 (antisense kA*kG*kT*d[5mC]*dA*dA*dG*dT*d[5mC]*dT*d[5mC]*dT*dT*kA*k[5mC]*k[5mC]) [compound 799901] | 31%
799902 (antisense kG*kG*kA*dA*dG*dA*d[5mC]*dA*d[5mC]*dA*dA*dG*dG*kG*k[5mC]*kT) [compound 799902] | 34%
799903 (antisense kT*kG*k[5mC]*dA*dT*dG*dG*d[5mC]*dA*dT*dT*dG*dT*k[5mC]*kT*kG) [compound 799903] | 34%
799905 (antisense kA*kG*kT*d[5mC]*dG*dA*dA*dT*d[5mC]*dA*dT*dT*dT*k[5mC]*kT*k[5mC]) [compound 799905] | 53%
799906 (antisense k[5mC]*kA*kT*dG*d[5mC]*dA*dG*dT*d[5mC]*dG*dA*dA*dT*k[5mC]*kA*kT) [compound 799906] | 11%
799907 (antisense kA*kG*kT*dA*dA*dA*dG*dG*dG*d[5mC]*d[5mC]*dT*d[5mC]*kT*k[5mC]*kT) [compound 799907] | 10%
799908 (antisense k[5mC]*kA*kT*dA*dA*dT*dA*dT*dT*dG*dA*d[5mC]*dA*kG*kT*kA) [compound 799908] | 41%
799909 (antisense kA*kT*kT*d[5mC]*dA*dT*dA*dA*dT*dA*dT*dT*dG*kA*k[5mC]*kA) [compound 799909] | 36%
